Tests used:
[1] = biological target: T1, recombinant human TRAP5a (Homo sapiens, UniProt P13686); experiment: TRAP activity assay (PNPP) with recombinant TRAP5a; assay type: biochemical; conditions: pH 5, 30 min 37 °C, mean ± standard error, n = 3
T1 construct: made in house
T1 sequence (P13686 22-325): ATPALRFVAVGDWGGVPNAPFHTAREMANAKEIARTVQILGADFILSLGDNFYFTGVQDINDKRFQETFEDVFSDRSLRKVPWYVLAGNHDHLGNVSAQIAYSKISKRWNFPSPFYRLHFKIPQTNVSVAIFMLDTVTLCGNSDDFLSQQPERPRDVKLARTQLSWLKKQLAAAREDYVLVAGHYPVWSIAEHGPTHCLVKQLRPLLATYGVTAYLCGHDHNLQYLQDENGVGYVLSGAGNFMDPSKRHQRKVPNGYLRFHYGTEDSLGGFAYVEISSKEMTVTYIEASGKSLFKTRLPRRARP
Experimental: (§1) Recombinant unspecified human TRAP was purchased from R&D (Minneapolis, USA). Recombinant human TRAP5a and 5b were produced and purified according to a protocol based on several sources[70]–[72] using an ÄKTApurifier™ 10 FPLC system (GE Healthcare, Danderyd, Sweden) as previously described.
(§2) Inhibitor dilutions were prepared in acetate buffer from freshly prepared stock solutions (10 mM in DMSO). Recombinant unspecified TRAP (1.25 ng/ml, pH 4.5), TRAP5a (150 ng/mL, pH 5) or TRAP5b (150 ng/mL, pH 5.8) were incubated at 37 °C for 30 minutes with PNPP solution [10 mM PNPP, 200 mM sodium acetaat, 300 mM potassium chloride) at the indicated pH at a 1:1 ratio and increasing concentrations of NaAuCl4 (range 0–40 μM) or Au compounds (range 0–5.1 μM). To stop the reaction, 1M NaOH was added and absorption at 410 nm, with 490 nm as a reference value, was measured using a spectrophotometer.
(§3) The inhibitory effects of gold compounds were calculated as the ratio of absorbance between the treated and untreated wells. The IC50 values were calculated using nonlinear curve fitting with a variable slope in Graphpad Prism 6 (Graphpad Software, la Jolla, USA). An average IC50 of three independent experiments was calculated.

[2] = system: other proteins; parameters: method as in PMID 20162197, PMID 21370912; conditions: compared to TRAP isoforms; cited from earlier work
[3] = system: RAW264.7 macrophages; experiment: Transwell migration, osteopontin-coated membrane; assay type: cell-based, mouse; conditions: AubipyOMe 80 nM, 5-PNA 100 μM
Experimental: (§4) Migration of RAW264.7 macrophages was assessed using a transwell-culturing system with inserts (Sigma-Aldrich) coated with osteopontin (10 μg/ml, R&D). Bovine collagen-coated inserts (10 μg/ml, Advanced Biometrix, Carlsbad, USA) were used as matrix control. Cells were incubated with or without RANKL (200 ng/ml) for 72 hours to induce TRAP activity or not[75], in the presence or absence of AubipyOMe (80 nM) in quadruplicate. The previously described TRAP inhibitor 5-PNA (100 μM) was used as selective positive control for TRAP inhibition[15],[23]. The number of cells migrated to the lower well, including dead cells, was calculated relative to control cells and individual experiments were done at least six times. […]
(§5) Transwell experiment to assess macrophage migration
Migration of RAW264.7 macrophages was assessed using a transwell-culturing system with inserts (Sigma-Aldrich) coated with osteopontin (10 µg/ml, R&D). Bovine collagen-coated inserts (Advanced Biometrix, Carlsbad, USA) were used as a matrix control. RAW264.7 macrophages, pre-stimulated with 200 ng/ml RANKL for 72h to induce TRAP activity16, were seeded on 8 µm pore inserts coated with osteopontin (10 µg/ml, 250,000 cells/well) or collagen (10 μg/ml, 250,000 cells/well). Cells were cultured for 16h in the presence or absence of AubipyOMe (80 nM) in quadruplicate. The previously described TRAP inhibitor 5-PNA (100 µM) was used as selective positive control for TRAP inhibition12,17. The number of cells migrated to the lower well, including dead cells, was calculated relative to control cells and individual experiments were done at least six times. […]

[4] = biological target: recombinant human TRAP5b (Homo sapiens, UniProt P13686); experiment: TRAP activity assay (PNPP) with recombinant TRAP5b; assay type: biochemical; conditions: pH 5.8, 30 min 37 °C, mean ± standard error, n = 3
Experimental: as §1, §2, §3

[5] = system: RAW264.7 macrophages; experiment: Transwell migration, collagen-coated membrane; assay type: cell-based, mouse; conditions: AubipyOMe 80 nM, with or without RANKL 200 ng/ml
Experimental: as §4, §5
Migration of RAW264.7 macrophages was assessed using a transwell-culturing system with inserts (Sigma-Aldrich) coated with osteopontin (10 µg/ml, R&D). Bovine collagen-coated inserts (Advanced Biometrix, Carlsbad, USA) were used as a matrix control. […] The number of cells migrated to the lower well, including dead cells, was calculated relative to control cells and individual experiments were done at least six times. […]

COc1ccnc(-c2cc(OC)ccn2)c1.F[P-](F)(F)(F)(F)F.[Cl][Au+][Cl] [AubipyOMe, [Au(4,4′-dimethoxy-2,2′-bipyridine)Cl2][PF6]]
IC50 [1]: 1300 ± 500 nM | inhibitory effects on other proteins [2]: extremely moderate | migration of RANKL-pretreated macrophages through osteopontin-coated membrane ([3]; RANKL 200 ng/ml 72 h, versus RANKL alone): significantly less migration | migration through osteopontin-coated membrane, inhibitor alone ([3]; no RANKL): did not affect migration | IC50 [4]: 1800 ± 300 nM | migration through collagen-coated membrane [5]: no effect
